# Reference: the kinase profiling compilation of Christmann-Franck et al. (2016)
# How the values were obtained:
# Test in all cases: radiometric filter-binding kinase assay, Kinase HotSpot
# Details in all cases: compound 0.5 µM; ATP 10 µM
# [1] = target: CHEK2 (human) (UniProt O96017)
# [2] = target: AURKC (human) (UniProt Q9UQB9)
# [3] = target: CHUK (human) (UniProt O15111)
# [4] = target: EGFR (human) (UniProt P00533)
# [5] = target: CDK4 CCND3 (human) (UniProt P30281+P11802)
# [6] = target: LTK (human) (UniProt P29376)
# [7] = target: ABL1 (human) (UniProt P00519)
# ABL1 (human), sequence (P00519 whole entry, looked up): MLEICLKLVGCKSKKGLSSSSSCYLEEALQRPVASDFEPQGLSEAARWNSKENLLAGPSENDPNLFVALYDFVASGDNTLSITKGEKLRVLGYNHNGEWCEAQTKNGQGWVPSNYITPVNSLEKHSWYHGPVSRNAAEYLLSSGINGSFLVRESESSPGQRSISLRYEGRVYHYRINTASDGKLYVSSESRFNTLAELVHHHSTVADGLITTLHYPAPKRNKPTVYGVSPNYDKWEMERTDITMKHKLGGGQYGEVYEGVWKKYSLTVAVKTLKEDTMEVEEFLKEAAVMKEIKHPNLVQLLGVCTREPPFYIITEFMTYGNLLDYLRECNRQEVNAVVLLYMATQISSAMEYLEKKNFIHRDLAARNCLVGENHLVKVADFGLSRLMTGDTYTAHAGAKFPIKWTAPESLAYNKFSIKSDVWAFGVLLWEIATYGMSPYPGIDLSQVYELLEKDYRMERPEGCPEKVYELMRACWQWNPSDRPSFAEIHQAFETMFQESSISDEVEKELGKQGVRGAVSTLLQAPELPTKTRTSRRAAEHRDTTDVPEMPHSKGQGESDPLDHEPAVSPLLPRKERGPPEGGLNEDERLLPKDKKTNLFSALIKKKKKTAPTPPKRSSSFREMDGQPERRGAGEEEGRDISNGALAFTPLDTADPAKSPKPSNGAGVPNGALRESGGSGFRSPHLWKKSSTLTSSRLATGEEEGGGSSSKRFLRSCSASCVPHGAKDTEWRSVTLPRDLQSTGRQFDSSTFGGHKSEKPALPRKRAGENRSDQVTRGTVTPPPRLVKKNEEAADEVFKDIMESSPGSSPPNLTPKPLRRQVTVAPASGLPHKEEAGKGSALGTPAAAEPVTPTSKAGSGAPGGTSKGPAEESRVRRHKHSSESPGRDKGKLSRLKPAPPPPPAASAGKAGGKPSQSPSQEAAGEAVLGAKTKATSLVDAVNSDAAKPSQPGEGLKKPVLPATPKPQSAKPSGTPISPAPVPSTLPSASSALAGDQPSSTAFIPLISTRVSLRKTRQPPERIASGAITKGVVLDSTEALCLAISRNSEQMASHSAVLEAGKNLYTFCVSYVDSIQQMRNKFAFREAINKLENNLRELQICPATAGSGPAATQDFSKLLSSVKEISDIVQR
# [8] = target: TBK1 (human) (UniProt Q9UHD2)
# [9] = target: TYRO3 (human) (UniProt Q06418)
# [10] = target: STK11 (human) (UniProt Q15831)
# [11] = target: JAK3 JH1 JH2 (human) (UniProt P52333)
# [12] = target: CDC42BPB (human) (UniProt Q9Y5S2)
# [13] = test system: PRKCQ (human), Q04759 [P330L]
# [14] = target: EPHA7 (human) (UniProt Q15375)
# EPHA7 (human), sequence (Q15375 whole entry, looked up): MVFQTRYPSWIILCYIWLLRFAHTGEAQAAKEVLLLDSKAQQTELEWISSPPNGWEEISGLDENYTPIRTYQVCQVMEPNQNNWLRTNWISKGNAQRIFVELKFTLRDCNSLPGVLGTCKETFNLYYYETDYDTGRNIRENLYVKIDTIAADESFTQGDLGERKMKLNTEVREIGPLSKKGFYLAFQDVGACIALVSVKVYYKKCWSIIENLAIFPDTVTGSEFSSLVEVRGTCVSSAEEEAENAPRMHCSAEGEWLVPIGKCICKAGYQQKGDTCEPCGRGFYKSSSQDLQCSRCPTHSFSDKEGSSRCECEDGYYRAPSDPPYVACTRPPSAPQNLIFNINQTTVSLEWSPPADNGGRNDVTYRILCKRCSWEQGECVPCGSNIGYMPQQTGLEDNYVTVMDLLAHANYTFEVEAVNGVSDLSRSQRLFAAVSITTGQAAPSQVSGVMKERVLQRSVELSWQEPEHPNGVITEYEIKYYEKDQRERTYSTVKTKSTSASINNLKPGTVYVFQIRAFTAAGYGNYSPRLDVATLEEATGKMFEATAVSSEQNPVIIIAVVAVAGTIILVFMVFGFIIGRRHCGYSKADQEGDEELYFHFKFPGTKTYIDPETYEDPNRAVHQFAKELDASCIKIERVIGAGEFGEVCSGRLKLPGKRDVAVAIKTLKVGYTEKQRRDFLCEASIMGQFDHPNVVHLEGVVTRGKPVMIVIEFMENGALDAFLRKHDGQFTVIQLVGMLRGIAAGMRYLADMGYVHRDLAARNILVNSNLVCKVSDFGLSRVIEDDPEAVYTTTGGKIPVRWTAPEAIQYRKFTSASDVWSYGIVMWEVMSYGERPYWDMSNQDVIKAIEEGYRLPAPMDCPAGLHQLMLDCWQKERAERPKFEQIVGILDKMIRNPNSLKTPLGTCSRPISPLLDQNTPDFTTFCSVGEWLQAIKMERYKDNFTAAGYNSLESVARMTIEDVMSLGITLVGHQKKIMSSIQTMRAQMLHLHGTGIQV
# [15] = target: PRKCD (human) (UniProt Q05655)
# [16] = target: CAMK1G (human) (UniProt Q96NX5)
# [17] = target: INSRR (human) (UniProt P14616)
# [18] = target: AXL (human) (UniProt P30530)
# [19] = target: FLT3 (human) (UniProt P36888)
# [20] = target: PRKD1 (human) (UniProt Q15139)
# [21] = target: STK10 (human) (UniProt O94804)
# [22] = target: CSNK1G3 (human) (UniProt Q9Y6M4)
# [23] = target: PRKG2 (human) (UniProt Q13237)
# [24] = target: HIPK4 (human) (UniProt Q8NE63)
# [25] = target: SRPK3 (human) (UniProt Q9UPE1)
# [26] = target: MAP2K2 (human) (UniProt P36507)
# [27] = target: MAP3K11 (human) (UniProt Q16584)
# [28] = target: MAPK9 (human) (UniProt P45984)
# MAPK9 (human), sequence (P45984 whole entry, looked up): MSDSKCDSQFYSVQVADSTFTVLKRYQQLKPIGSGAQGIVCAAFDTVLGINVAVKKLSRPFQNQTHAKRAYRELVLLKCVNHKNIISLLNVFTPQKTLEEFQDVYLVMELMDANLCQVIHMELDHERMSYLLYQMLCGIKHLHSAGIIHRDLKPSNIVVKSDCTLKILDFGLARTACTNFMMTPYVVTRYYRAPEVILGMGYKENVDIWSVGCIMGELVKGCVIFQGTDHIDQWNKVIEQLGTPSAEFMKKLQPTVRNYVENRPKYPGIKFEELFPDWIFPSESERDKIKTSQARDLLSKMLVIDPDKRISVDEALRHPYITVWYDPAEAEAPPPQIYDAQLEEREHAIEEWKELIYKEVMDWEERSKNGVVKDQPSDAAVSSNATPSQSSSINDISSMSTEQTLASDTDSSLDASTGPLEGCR
# [29] = target: PDGFRA (human) (UniProt P16234)
# [30] = target: CDK9 CCNT1 (human) (UniProt P50750+O60563)
# [31] = target: TGFBR1 (human) (UniProt P36897)
# [32] = target: CLK3 (human) (UniProt P49761)
# [33] = target: MAP3K3 (human) (UniProt Q99759)
# MAP3K3 (human), sequence (Q99759 whole entry, looked up): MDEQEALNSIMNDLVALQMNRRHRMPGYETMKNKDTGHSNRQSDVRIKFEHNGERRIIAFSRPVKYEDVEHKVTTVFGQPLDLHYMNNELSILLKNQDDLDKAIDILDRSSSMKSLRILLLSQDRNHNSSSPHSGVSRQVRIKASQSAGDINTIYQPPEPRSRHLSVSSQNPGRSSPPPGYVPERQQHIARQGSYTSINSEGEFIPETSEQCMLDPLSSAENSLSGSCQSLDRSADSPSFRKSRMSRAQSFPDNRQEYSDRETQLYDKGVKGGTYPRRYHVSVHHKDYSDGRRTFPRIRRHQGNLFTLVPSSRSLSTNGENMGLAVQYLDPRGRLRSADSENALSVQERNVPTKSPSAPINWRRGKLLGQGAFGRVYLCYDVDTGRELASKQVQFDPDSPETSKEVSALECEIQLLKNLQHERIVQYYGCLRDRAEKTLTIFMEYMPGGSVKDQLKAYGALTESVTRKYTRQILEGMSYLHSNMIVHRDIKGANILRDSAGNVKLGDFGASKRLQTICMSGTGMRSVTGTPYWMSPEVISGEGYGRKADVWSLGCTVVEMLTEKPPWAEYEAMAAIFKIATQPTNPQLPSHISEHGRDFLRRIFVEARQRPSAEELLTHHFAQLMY
# [34] = target: CAMK4 (human) (UniProt Q16566)
# CAMK4 (human), sequence (Q16566 whole entry, looked up): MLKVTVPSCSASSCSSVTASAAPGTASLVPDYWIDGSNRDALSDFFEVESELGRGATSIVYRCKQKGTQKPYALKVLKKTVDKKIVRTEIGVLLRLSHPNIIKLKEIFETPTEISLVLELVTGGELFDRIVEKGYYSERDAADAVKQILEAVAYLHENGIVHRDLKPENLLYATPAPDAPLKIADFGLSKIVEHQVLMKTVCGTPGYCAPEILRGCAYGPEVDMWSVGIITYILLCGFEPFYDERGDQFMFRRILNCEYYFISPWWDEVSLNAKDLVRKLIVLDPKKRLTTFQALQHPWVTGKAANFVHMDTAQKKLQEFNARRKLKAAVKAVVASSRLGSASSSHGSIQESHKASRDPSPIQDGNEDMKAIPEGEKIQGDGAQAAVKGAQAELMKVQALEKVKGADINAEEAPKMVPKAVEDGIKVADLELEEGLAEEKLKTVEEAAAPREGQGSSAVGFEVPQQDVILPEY
# [35] = target: YES1 (human) (UniProt P07947)
# [36] = target: CSNK1D (human) (UniProt P48730)
# [37] = target: CDK6 CCND1 (human) (UniProt Q00534+P24385)
# [38] = target: PRKX (human) (UniProt P51817)
# [39] = target: EPHA5 (human) (UniProt P54756)
# [40] = target: CLK2 (human) (UniProt P49760)
# [41] = target: DSTYK (human) (UniProt Q6XUX3)
# [42] = target: MAPKAPK2 (human) (UniProt P49137)
# EGFR (human), sequence (P00533 whole entry, looked up): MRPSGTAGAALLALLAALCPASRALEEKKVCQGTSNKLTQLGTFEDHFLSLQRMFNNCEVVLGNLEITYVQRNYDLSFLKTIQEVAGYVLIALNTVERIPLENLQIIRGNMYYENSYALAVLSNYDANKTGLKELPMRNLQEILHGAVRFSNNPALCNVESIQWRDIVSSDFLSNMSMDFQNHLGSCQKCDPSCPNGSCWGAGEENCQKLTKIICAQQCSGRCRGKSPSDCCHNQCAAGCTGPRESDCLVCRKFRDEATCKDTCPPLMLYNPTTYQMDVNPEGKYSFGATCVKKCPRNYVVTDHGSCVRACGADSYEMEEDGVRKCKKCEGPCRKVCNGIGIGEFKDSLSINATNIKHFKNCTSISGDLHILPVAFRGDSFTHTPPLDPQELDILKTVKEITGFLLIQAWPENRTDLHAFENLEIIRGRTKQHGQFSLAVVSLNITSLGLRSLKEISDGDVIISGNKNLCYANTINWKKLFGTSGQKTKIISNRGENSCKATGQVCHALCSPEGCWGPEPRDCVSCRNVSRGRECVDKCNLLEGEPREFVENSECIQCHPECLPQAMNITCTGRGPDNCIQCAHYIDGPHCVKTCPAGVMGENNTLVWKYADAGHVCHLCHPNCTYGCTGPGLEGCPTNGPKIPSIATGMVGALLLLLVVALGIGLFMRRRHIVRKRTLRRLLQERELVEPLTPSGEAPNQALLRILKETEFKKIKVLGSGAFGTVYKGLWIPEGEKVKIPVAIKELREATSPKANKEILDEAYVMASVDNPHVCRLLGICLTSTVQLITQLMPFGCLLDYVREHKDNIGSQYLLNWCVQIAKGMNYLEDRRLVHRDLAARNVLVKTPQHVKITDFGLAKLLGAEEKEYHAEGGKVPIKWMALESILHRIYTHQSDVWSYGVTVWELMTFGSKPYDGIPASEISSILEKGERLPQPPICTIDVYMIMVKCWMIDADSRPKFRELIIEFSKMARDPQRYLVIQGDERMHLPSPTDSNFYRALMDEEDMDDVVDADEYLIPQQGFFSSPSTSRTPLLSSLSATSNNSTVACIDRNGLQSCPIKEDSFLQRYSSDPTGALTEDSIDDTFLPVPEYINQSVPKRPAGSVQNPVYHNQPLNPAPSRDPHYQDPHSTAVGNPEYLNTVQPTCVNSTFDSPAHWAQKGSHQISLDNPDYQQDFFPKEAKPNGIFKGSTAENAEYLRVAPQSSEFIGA
compound,measurement,setting,value
Ic1cccc(CSc2nnc(-c3ccncc3)o2)c1,residual activity,[1],102%
same,residual activity,[2],91.2%
same,residual activity,[3],96.5%
same,residual activity,[4],97.1%
same,residual activity,[5],97.5%
same,residual activity,[6],103%
same,residual activity,[7],107%
same,residual activity,[8],103%
same,residual activity,[9],103%
same,residual activity,[10],103%
same,residual activity,[11],106%
same,residual activity,[12],96.6%
same,residual activity,[13],120%
same,residual activity,[14],100%
same,residual activity,[15],83.7%
same,residual activity,[16],95.9%
same,residual activity,[17],98%
same,residual activity,[18],99.2%
same,residual activity,[19],102%
same,residual activity,[20],97.6%
same,residual activity,[21],93.8%
same,residual activity,[22],75.9%
same,residual activity,[23],105%
same,residual activity,[24],98.8%
same,residual activity,[25],101%
same,residual activity,[26],102%
same,residual activity,[27],99.6%
same,residual activity,[28],108%
same,residual activity,[29],90.1%
same,residual activity,[30],109%
same,residual activity,[31],94.4%
same,residual activity,[32],76.3%
same,residual activity,[33],89.6%
same,residual activity,[34],91.6%
same,residual activity,[35],95.7%
same,residual activity,[36],103%
same,residual activity,[37],97.5%
same,residual activity,[38],78.2%
same,residual activity,[39],100%
same,residual activity,[40],104%
same,residual activity,[41],94.8%
same,residual activity,[42],93.5%
c1ccc2c(-c3ccncc3)c[nH]c2c1,residual activity,[1],99.3%
same,residual activity,[2],93.1%
same,residual activity,[3],107%
same,residual activity,[4],97.3%
same,residual activity,[5],102%
same,residual activity,[6],103%
same,residual activity,[7],98.8%
same,residual activity,[8],93.4%
same,residual activity,[9],98.1%
same,residual activity,[10],90.7%
same,residual activity,[11],95.3%
same,residual activity,[12],104%
same,residual activity,[13],125%
same,residual activity,[14],98.2%
same,residual activity,[15],83.2%
same,residual activity,[16],99%
same,residual activity,[17],101%
same,residual activity,[18],99.8%
same,residual activity,[19],91.5%
same,residual activity,[20],95.5%
same,residual activity,[21],93.7%
same,residual activity,[22],108%
same,residual activity,[23],38.3%
same,residual activity,[24],93.8%
same,residual activity,[25],96%
same,residual activity,[26],103%
same,residual activity,[27],95.2%
same,residual activity,[28],103%
same,residual activity,[29],95%
same,residual activity,[30],75.2%
same,residual activity,[31],103%
same,residual activity,[32],92.6%
same,residual activity,[33],103%
same,residual activity,[34],101%
same,residual activity,[35],97.1%
same,residual activity,[36],105%
same,residual activity,[37],97.6%
same,residual activity,[38],54.3%
same,residual activity,[39],99.4%
same,residual activity,[40],101%
same,residual activity,[41],95.9%
same,residual activity,[42],101%
O=C1Nc2ccc(Br)cc2/C1=C\c1cc2c([nH]1)CCCC2,residual activity,[1],68.2%
same,residual activity,[2],86.3%
same,residual activity,[3],99.1%
same,residual activity,[4],87.4%
same,residual activity,[5],99.8%
same,residual activity,[6],70.6%
same,residual activity,[7],91.8%
same,residual activity,[8],66.9%
same,residual activity,[9],104%
same,residual activity,[10],88.7%
same,residual activity,[11],89.3%
same,residual activity,[12],114%
same,residual activity,[13],98.4%
same,residual activity,[14],85.3%
same,residual activity,[15],95.6%
same,residual activity,[16],103%
same,residual activity,[17],94.8%
same,residual activity,[18],90%
same,residual activity,[19],3.86%
same,residual activity,[20],93.8%
same,residual activity,[21],65.5%
same,residual activity,[22],103%
same,residual activity,[23],92.4%
same,residual activity,[24],104%
same,residual activity,[25],77.8%
same,residual activity,[26],92.1%
same,residual activity,[27],16.8%
same,residual activity,[28],99.4%
same,residual activity,[29],76.2%
same,residual activity,[30],90%
same,residual activity,[31],100%
same,residual activity,[32],101%
same,residual activity,[33],88.6%
same,residual activity,[34],97.5%
same,residual activity,[35],67.2%
same,residual activity,[36],72.4%
same,residual activity,[37],90.4%
same,residual activity,[38],97.2%
same,residual activity,[39],91.3%
same,residual activity,[40],88.6%
same,residual activity,[41],93.1%
same,residual activity,[42],97.5%
CN(C)CCCn1cc(C2=C(c3c[nH]c4ccccc34)C(=O)NC2=O)c2ccccc21,residual activity,[1],68.5%
same,residual activity,[2],84.7%
same,residual activity,[3],105%
same,residual activity,[4],94%
same,residual activity,[5],67%
same,residual activity,[6],99.5%
same,residual activity,[7],103%
same,residual activity,[8],83.8%
same,residual activity,[9],97.2%
same,residual activity,[10],92.8%
same,residual activity,[11],81.5%
same,residual activity,[12],90.8%
same,residual activity,[13],17.3%
same,residual activity,[14],97%
same,residual activity,[15],4.73%
same,residual activity,[16],97.4%
same,residual activity,[17],91.3%
same,residual activity,[18],100%
same,residual activity,[19],5.6%
same,residual activity,[20],71.6%
same,residual activity,[21],19.4%
same,residual activity,[22],96.9%
same,residual activity,[23],38.7%
same,residual activity,[24],113%
same,residual activity,[25],86.9%
same,residual activity,[26],98.9%
same,residual activity,[27],61%
same,residual activity,[28],98.7%
same,residual activity,[29],69.2%
same,residual activity,[30],65.3%
same,residual activity,[31],102%
same,residual activity,[32],94.3%
same,residual activity,[33],97%
same,residual activity,[34],89.5%
same,residual activity,[35],84.6%
same,residual activity,[36],97.6%
same,residual activity,[37],58.3%
same,residual activity,[38],85.3%
same,residual activity,[39],92%
same,residual activity,[40],28%
same,residual activity,[41],95%
same,residual activity,[42],85.4%
